In patent US10442763B2, “EBNA1 inhibitors and methods using same” (priority 2015, dated 2019):

These molecules were tested against T1, His-EBNA1 (DNA binding domain of EBNA1, amino acids 459-607) (Epstein-Barr virus, UniProt P03211) (assay: Inhibition of 5'-biotin-oPL4624 binding to His-EBNA1 using Alpha Screen technology).
T1 construct: made in house; host or cells: E. coli
Method: Inhibition of 5′-Biotin-oPL4624 Binding to his-EBNA1 Using Alpha Screen Technology
Assays were performed using the DNA binding domain of EBNA1 (amino acids 459-607), which was His-tagged (His-EBNA1) and the self-complementary biotinylated (bt) oligonucleotide with the sequence 5′-bt-[…]-ATGCTACCC-3′ (bt-oPL4624; or 5′-bt-SEQ ID NO: 1). The protein was expressed in E. coli and purified according to Barwell, et al., 1995, J Biol Chem. 270:20556-9.). The bt-oPL4624 oligonucleotide was purchased from Integrated DNA Technologies, Inc (IDT). AlphaScreen donor, acceptor beads and white, opaque 384-well assay plates were purchased from PerkinElmer, Inc.
Assays contained 15 nM His-EBNA1, 0.2 nM bt-oPL4624, 5 μg/mL AlphaScreen streptavidin donor beads and nickel chelate acceptor beads, and a series of concentrations of test compound ranging from 3.2 nM to 100 μM in a total volume of 40 μL assay buffer (25 mM Tris, pH 7.2, 160 mM NaCl, 1 mM MgCl2). His-EBNA1 (30 nM) and bt-oPL4624 (0.4 nM) were preincubated with 10 μg/mL nickel chelate AlphaScreen acceptor bead, or 10 μg/mL streptavidin AlphaScreen donor bead, respectively, for 30 minutes at room temperature in assay buffer. Twenty microliters of His-EBNA1/acceptor bead mix and bt-oPL4624/donor bead mix were transferred to assay plates containing 0.4 μL of 1:3 serial dilutions of test compounds previously prepared in DMSO at concentrations ranging from 0.32 μM to 10 mM. Non-specific binding was determined with 5 μg/mL AlphaScreen acceptor bead in the absence of His-EBNA1. After 2 hr incubation at room temperature, the AlphaScreen signal was measured on the Envision plate reader (PerkinElmer, Inc.) at 680 nm excitation and 570 nm emission. Inhibition values at each concentration of test compound were determined by setting 100% equal to raw data values in the absence of EBNA1 and 0% equal to the raw data values in the presence of EBNA1. Nonlinear regression fits of the inhibition values to a one-site dose-response equation were performed using GraphPad Prism.

T1 sequence (P03211 459-607): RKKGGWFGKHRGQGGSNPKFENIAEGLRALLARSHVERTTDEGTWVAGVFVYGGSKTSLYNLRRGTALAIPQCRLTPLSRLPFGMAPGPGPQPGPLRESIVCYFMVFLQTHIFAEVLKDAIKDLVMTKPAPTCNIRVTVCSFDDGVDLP

Structure (SMILES) | IC50
CS(=O)(=O)Nc1cccc(CN2CCc3cc(C#Cc4cccc(C(=O)O)c4-c4ccc5cc[nH]c5c4)ccc3C2)c1 [Entry 66] | 1 to 10 µM
CS(=O)(=O)Nc1cccc(CN2CCc3ccc(C#Cc4cccc(C(=O)O)c4-c4ccc5cc[nH]c5c4)cc3C2)c1 [Entry 67] | 1 to 10 µM
CS(=O)(=O)N1CCC(N2Cc3ccc(C#Cc4cccc(C(=O)O)c4-c4ccc5cc[nH]c5c4)cc3C2)C1 (stereo not drawn) [Entry 68] | 1 to 10 µM
CS(=O)(=O)N1CC(N2Cc3ccc(C#Cc4cccc(C(=O)O)c4-c4ccc5cc[nH]c5c4)cc3C2)C1 [Entry 69] | 1 to 10 µM
CS(=O)(=O)N1CCC(CN2Cc3ccc(C#Cc4cccc(C(=O)O)c4-c4ccc5cc[nH]c5c4)cc3C2)C1 (stereo not drawn) [Entry 70] | 1 to 10 µM
CS(=O)(=O)N1CC(CN2Cc3ccc(C#Cc4cccc(C(=O)O)c4-c4ccc5cc[nH]c5c4)cc3C2)C1 [Entry 71] | 10 to 100 µM
CS(=O)(=O)N1CCC(CN2Cc3ccc(C#Cc4cccc(C(=O)O)c4-c4ccc5cc[nH]c5c4)cc3C2)CC1 [Entry 72] | 10 to 100 µM
CS(=O)(=O)N1CCc2ccc(C#Cc3cccc(C(=O)O)c3-c3ccc4cc[nH]c4c3)cc2C1 [Entry 73] | 1 to 10 µM
CC(C)S(=O)(=O)N1CCc2ccc(C#Cc3cccc(C(=O)O)c3-c3ccc4cc[nH]c4c3)cc2C1 [Entry 74] | 1 to 10 µM
CCC(=O)N1CCc2ccc(C#Cc3cccc(C(=O)O)c3-c3ccc4cc[nH]c4c3)cc2C1 [Entry 75] | 10 to 100 µM
CS(=O)(=O)N1CCc2cc(C#Cc3cccc(C(=O)O)c3-c3ccc4cc[nH]c4c3)ccc2C1 [Entry 76] | 1 to 10 µM
CC(C)S(=O)(=O)N1CCc2cc(C#Cc3cccc(C(=O)O)c3-c3ccc4cc[nH]c4c3)ccc2C1 [Entry 77] | 1 to 10 µM
CC(=O)N1CCc2cc(C#Cc3cccc(C(=O)O)c3-c3ccc4cc[nH]c4c3)ccc2C1 [Entry 78] | 1 to 10 µM
CCC(=O)N1CCc2cc(C#Cc3cccc(C(=O)O)c3-c3ccc4cc[nH]c4c3)ccc2C1 [Entry 79] | 1 to 10 µM
N#Cc1cccc(OCc2ccc(C#Cc3cccc(C(=O)O)c3-c3ccc4cc[nH]c4c3)cc2)c1 [Entry 81] | 1 to 10 µM
NC(=O)c1cccc(OCc2ccc(C#Cc3cccc(C(=O)O)c3-c3ccc4cc[nH]c4c3)cc2)c1 [Entry 82] | 1 to 10 µM
O=C(O)c1cccc(C#Cc2ccc(COc3ccc(C(F)(F)F)cc3)cc2)c1-c1ccc2cc[nH]c2c1 [Entry 83] | 1 to 10 µM
O=C(O)c1cccc(C#Cc2ccc(COc3cccc(C(F)(F)F)c3)cc2)c1-c1ccc2cc[nH]c2c1 [Entry 84] | 1 to 10 µM
COc1ccc(OCc2ccc(C#Cc3cccc(C(=O)O)c3-c3ccc4cc[nH]c4c3)cc2)cc1 [Entry 85] | 1 to 10 µM
NC(=O)c1ccc(OCc2ccc(C#Cc3cccc(C(=O)O)c3-c3ccc4cc[nH]c4c3)cc2)cc1 [Entry 86] | 1 to 10 µM
COc1cccc(OCc2ccc(C#Cc3cccc(C(=O)O)c3-c3ccc4cc[nH]c4c3)cc2)c1 [Entry 87] | 1 to 10 µM
O=C(O)c1cccc(C#Cc2ccc(COc3ccccc3)cc2)c1-c1ccc2cc[nH]c2c1 [Entry 88] | 1 to 10 µM

Structure (SMILES) | IC50
O=C(O)c1cccc(C#Cc2ccc(COc3ccccc3F)cc2)c1-c1ccc2cc[nH]c2c1 [Entry 89] | 1 to 10 µM
O=C(O)c1cccc(C#Cc2ccc(COc3cccnc3)cc2)c1-c1ccc2cc[nH]c2c1 [Entry 90] | 1 to 10 µM
O=C(O)c1cccc(C#Cc2ccc(COc3cccc(Cl)c3)cc2)c1-c1ccc2cc[nH]c2c1 [Entry 91] | 1 to 10 µM
O=C(O)c1cccc(C#Cc2ccc(COc3ccc(Cl)c(Cl)c3)cc2)c1-c1ccc2cc[nH]c2c1 [Entry 92] | 1 to 10 µM
O=C(O)c1cccc(C#Cc2ccc(COc3ccccc3C(F)(F)F)cc2)c1-c1ccc2cc[nH]c2c1 [Entry 93] | 1 to 10 µM
N#Cc1ccccc1OCc1ccc(C#Cc2cccc(C(=O)O)c2-c2ccc3cc[nH]c3c2)cc1 [Entry 94] | 1 to 10 µM
CS(=O)(=O)c1ccc(OCc2ccc(C#Cc3cccc(C(=O)O)c3-c3ccc4cc[nH]c4c3)cc2)cc1 [Entry 95] | 1 to 10 µM
O=C(O)c1cccc(C#Cc2ccc(COc3cncnc3)cc2)c1-c1ccc2cc[nH]c2c1 [Entry 96] | 1 to 10 µM
CS(=O)(=O)c1ccccc1OCc1ccc(C#Cc2cccc(C(=O)O)c2-c2ccc3cc[nH]c3c2)cc1 [Entry 97] | 1 to 10 µM
CS(=O)(=O)c1cccc(OCc2ccc(C#Cc3cccc(C(=O)O)c3-c3ccc4cc[nH]c4c3)cc2)c1 [Entry 98] | 1 to 10 µM
CS(=O)(=O)Nc1cccc(-c2cccc(C#Cc3cccc(C(=O)O)c3-c3ccc4cc[nH]c4c3)c2)c1 [Entry 99] | 1 to 10 µM
O=C(O)c1cccc(C#Cc2ccc(OC3CCOCC3)nc2)c1-c1ccc2cc[nH]c2c1 [Entry 100] | 1 to 10 µM
CCCNC(=O)c1cc2ccc(C#Cc3cccc(C(=O)O)c3-c3ccc4cc[nH]c4c3)cc2[nH]1 [Entry 101] | 1 to 10 µM
O=C(O)c1cccc(C#Cc2cccc(CN3CCc4ccccc4C3)c2)c1-c1ccc2cc[nH]c2c1 [Entry 102] | 1 to 10 µM
N#Cc1cc(C#Cc2cccc(C(=O)O)c2-c2ccc3cc[nH]c3c2)ccc1OC1CCOCC1 [Entry 103] | 1 to 10 µM
CCOC(=O)N1CCN(Cc2cccc(C#Cc3cccc(C(=O)O)c3-c3ccc4cc[nH]c4c3)c2)CC1 [Entry 104] | 10 to 100 µM
O=C(O)c1cccc(C#Cc2ccc(C3(CO)COC3)cc2)c1-c1ccc2cc[nH]c2c1 [Entry 105] | 1 to 10 µM
Nc1cc(-c2cccc(C#Cc3cccc(C(=O)O)c3-c3ccc4cc[nH]c4c3)c2)n[nH]1 [Entry 106] | 1 to 10 µM
O=C(O)c1cccc(C#Cc2cccc(-c3cnco3)c2)c1-c1ccc2cc[nH]c2c1 [Entry 107] | 1 to 10 µM
O=C(O)c1cccc(C#Cc2ccc(C(=O)C3CCOCC3)cc2)c1-c1ccc2cc[nH]c2c1 [Entry 108] | 1 to 10 µM
O=C(O)c1cccc(C#Cc2ccccc2)c1-c1ccc2cc[nH]c2c1F [Entry 109] | 10 to 100 µM
O=C(O)c1cccc(C#Cc2ccccc2)c1-c1ccc2ncsc2c1 [Entry 110] | 10 to 100 µM

Structure (SMILES) | IC50
O=C(O)c1cccc(C#Cc2ccccc2)c1-c1ccc2scnc2c1 [Entry 111] | 10 to 100 µM
Cc1nc2cc(-c3c(C#Cc4ccccc4)cccc3C(=O)O)ccc2s1 [Entry 112] | 10 to 100 µM
O=C(O)c1cccc(C#Cc2ccccc2)c1-c1cc2[nH]ccc2cc1F [Entry 113] | 1 to 10 µM
O=C(O)c1cccc(C#Cc2ccccc2)c1-c1cc2cc[nH]c2cc1F [Entry 114] | 10 to 100 µM
O=C(O)c1cccc(C#Cc2ccccc2)c1-c1cnc2ncccc2c1 [Entry 115] | 100 to 1000 µM
Cn1ccc2ccc(-c3c(C#Cc4ccccc4)cccc3C(=O)O)nc21 [Entry 116] | 10 to 100 µM
O=C(O)c1cccc(C#Cc2ccccc2)c1-c1ccc2cccnc2n1 [Entry 117] | 10 to 100 µM
O=C(O)c1cccc(C#Cc2ccccc2)c1-c1ccc2cc[nH]c2n1 [Entry 118] | 100 to 1000 µM
COc1cc(-c2c(C#Cc3ccccc3)cccc2C(=O)O)cc2[nH]ccc12 [Entry 119] | 1 to 10 µM
CC(C)(O)c1ccc(C#Cc2cccc(C(=O)O)c2-c2ccc3cc[nH]c3c2)cc1 [Entry 120] | 1 to 10 µM
Nc1nc(-c2ccc(C#Cc3cccc(C(=O)O)c3-c3ccc4cc[nH]c4c3)cc2)cs1 [Entry 121] | 1 to 10 µM
NS(=O)(=O)c1cccc(C#Cc2cccc(C(=O)O)c2-c2ccc3cc[nH]c3c2)c1 [Entry 122] | 10 to 100 µM
Nc1ccc(C#Cc2cccc(C(=O)O)c2-c2ccc3cc[nH]c3c2)cc1S(N)(=O)=O [Entry 123] | 10 to 100 µM
CC(C)(C)OC(=O)N1CCC2(CC1)CC(=O)c1cc(C#Cc3cccc(C(=O)O)c3-c3ccc4cc[nH]c4c3)ccc1O2 [Entry 124] | 1 to 10 µM
Nc1nc(-c2cccc(C#Cc3cccc(C(=O)O)c3-c3ccc4cc[nH]c4c3)c2)cs1 [Entry 125] | 1 to 10 µM
Nc1nnc(-c2ccc(C#Cc3cccc(C(=O)O)c3-c3ccc4cc[nH]c4c3)cc2)s1 [Entry 127] | 1 to 10 µM
Nc1cc(-c2ccc(C#Cc3cccc(C(=O)O)c3-c3ccc4cc[nH]c4c3)cc2)[nH]n1 [Entry 128] | 1 to 10 µM
Nc1nc(-c2ccc(C#Cc3cccc(C(=O)O)c3-c3ccc4cc[nH]c4c3)cc2)c(C(=O)O)s1 [Entry 129] | < 1 µM
Nc1ncc(-c2ccc(C#Cc3cccc(C(=O)O)c3-c3ccc4cc[nH]c4c3)cc2)o1 [Entry 130] | 1 to 10 µM
CS(=O)(=O)Nc1nc(-c2ccc(C#Cc3cccc(C(=O)O)c3-c3ccc4cc[nH]c4c3)cc2)cs1 [Entry 131] | < 1 µM
CS(=O)(=O)Nc1nc(-c2cccc(C#Cc3cccc(C(=O)O)c3-c3ccc4cc[nH]c4c3)c2)cs1 [Entry 132] | < 1 µM
COC1CCN(Cc2nc(=O)c3cc(C#Cc4cccc(C(=O)O)c4-c4ccc5cc[nH]c5c4)ccc3[nH]2)CC1 [Entry 133] | 10 to 100 µM
